According to US9629830B2, “EphA4 inhibitors as neuroprotective agents” (The Hong Kong University of Science and Technology, priority 2013, dated 2017):
Read-outs that look alike come from different tables or passages of the source.

Tests used:
[1] = system: Aβ-induced reduction of neurotransmission in hippocampal neurons; test: mEPSC recording in Aβ-treated cultured hippocampal neurons; type: cell-based, rat
Procedure: Primary cortical and hippocampal neurons were prepared from embryonic day 18-19 rat embryos as described previously^24. Briefly, cortical neurons (6×10^6 per plate) were plated on 100-mm culture dishes coated with poly-D-lysine (12.5 μg/mL; Sigma). Rat hippocampal neurons were seeded on 18-mm coverslips coated with poly-D-lysine (50 μg/mL) at a density of 0.5×10^5/18-mm coverslip for immunocytochemical analysis, 0.1×10^5/18-mm coverslip for growth cone collapse assay, or 1×10^5 or 1.5×10^5/18-mm coverslip for mEPSC recording. Neurons were fed Neurobasal medium (Invitrogen) supplemented with 2% B27 (Invitrogen). Acute brain slices were prepared from P15-P17 Sprague-Dawley rats. Briefly, the rats were rapidly decapitated, and their brains were immersed in ice-cold artificial cerebrospinal fluid (ACSF). The hippocampus was dissected, and 300-μm-thick slices were prepared using a vibratome (Lieca). The slices were then transferred into an incubating chamber containing circulating ACSF equilibrated with 95% O2+5% CO2 and held at room temperature for at least 2 h for recovery prior to experiments^65.
For miniature EPSC recordings, hippocampal neurons at ˜25-28 DIV were co-treated with or without 500 nM Aβ together with the testing reagents for 24 h. Whole-cell patch-clamp recordings were made at room temperature with external solution containing (in mM) 110 NaCl, 5 KCl, 2 CaCl2, 0.8 MgCl2, 10 HEPES, and 10 D-glucose (pH 7.4) as well as an internal solution containing (in mM) 135 CsCl2, 10 HEPES, 2 MgCl2, 4 NaATP, 0.4 NaGTP, and 0.5 EGTA (pH 7.2)^24,27. Picrotoxin ([…]) was included in the external solution to block GABAergic IPSCs along with 0.5 μM TTX to prevent action potential-evoked EPSCs. For miniature EPSC recordings, cells were held at −70 mV. The pipette resistances for these experiments were typically 3-5 MΩ, while series resistances were 15-20 MΩ. The minis from each cell was recorded for 1 min in each condition. The measurement of mEPSC was according to that described in Mini Analysis Program for measuring AMPA receptor EPSCs (Synaptosoft Inc.). Only recording epochs in which series and input resistances varied <10% were analyzed. Data are presented as the mean±SEM of at least 3 experiments.

[2] = target: T1, extracellular domain of EphA4 (Homo sapiens, UniProt P54764); test: In vitro pull-down of recombinant EphA4-Fc with biotinylated Rhy on streptavidin beads; type: binding; conditions: western blot
T1 construct: purchased R&D Systems
T1 sequence (P54764 20-547 limits assumed): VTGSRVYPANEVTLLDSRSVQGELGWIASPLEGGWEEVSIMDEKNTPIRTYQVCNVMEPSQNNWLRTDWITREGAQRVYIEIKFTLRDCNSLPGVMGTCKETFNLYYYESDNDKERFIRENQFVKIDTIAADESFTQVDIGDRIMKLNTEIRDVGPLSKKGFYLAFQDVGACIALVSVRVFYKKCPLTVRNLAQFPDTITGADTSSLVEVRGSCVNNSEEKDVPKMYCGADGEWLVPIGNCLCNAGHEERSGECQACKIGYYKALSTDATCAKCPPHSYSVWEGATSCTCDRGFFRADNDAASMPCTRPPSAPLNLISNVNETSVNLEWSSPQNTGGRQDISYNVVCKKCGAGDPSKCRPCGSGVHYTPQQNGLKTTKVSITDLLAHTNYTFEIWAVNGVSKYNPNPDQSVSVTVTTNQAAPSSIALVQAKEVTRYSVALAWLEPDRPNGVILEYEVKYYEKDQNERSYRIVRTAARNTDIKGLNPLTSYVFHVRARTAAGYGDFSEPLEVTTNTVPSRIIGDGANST
Procedure: For the pull-down analysis, Bio-Rhy was bound to streptavidin magnetic beads for 1 h, the beads was then incubated with recombinant EphA4-Fc or EphB2-Fc in the presence of 0.5% BSA for 1 h. After incubation, the beads were washed 4 times with DPBS and the presence of Eph in the complex was determined by western blot analysis.

[3] = system: glutamate-induced Ca2+ influx; conditions: subsequent study; cited from earlier work
[4] = Blood and brain penetration assay after single oral administration; type: in vivo, mouse; conditions: for half-life: C57Bl/6, mouse, po, 50 mg/kg
Procedure: Five microliters of sample was injected and eluted by the following program at the flow rate of 0.6 ml/min: 0-4.0 min, 10˜35% ACN; 4.0-4.1 min, 100% ACN; 7.0-7.1 min, 100-10% ACN, 7.1-10 min, 10% ACN. Detection of Rhy was carried out with the positive ionization mode. The ESI conditions were as follows: declustering potential 120 V, entrance potential 10 V, collision cell exit potential 12 V, collision energies 38 V, curtain gas 50 (arbitrary units), collision gas 10 (arbitrary units), ion spray voltage […], source temperature 500° C., ion source gas 1:45 (arbitrary units), ion source gas 2:60 (arbitrary units).
Male C57Bl/6 mice (16-week-old) were obtained from the Hong Kong University of Science and Technology (HKUST) Animal Care Facility and acclimatized in the laboratory a week before the study. […] The procedures in this study were approved by HKUST Animal Ethics Committee and conducted in accordance with the Code of Practice and Use of Animals for Experimental Purpose.
Plasma was obtained by centrifuging the blood at 3,800×g at 4° C. for 10 min. Mouse brains were collected after a 30-min cardiac perfusion with 0.9% saline. Whole mouse brain with the addition of 80 μL 0.9% saline was subjected to homogenization for 10 s (Precellys Minilys) at 4000 rpm with ceramic beads. […] Samples were centrifuged at 12,000×g at 4° C. for 10 min. The supernatants were transferred to a new tube and the remaining samples were subjected to another extraction. The supernatants obtained from the two extractions were pooled and evaporated to dryness. The dried samples were dissolved in 0.3 mL methanol, vortexed for 30 s followed by ultrasonication for 5 min and centrifuged at 17,900×g for 5 min. The supernatant (80 μL) was transferred into vial for UPLC-MS/MS analysis.

[5] = mouse, single oral 50 mg/kg, rounded

In the case of `CC[C@H]1CN2CC[C@]3(C(=O)Nc4ccccc43)[C@@H]2C[C@@H]1/C(=C\OC)C(=O)OC` [Rhy, methyl (7β,16E,20α)-16-(methoxymethylene)-2-oxocorynoxan-17-oate], the mEPSC inter-event interval ([1]; Rhy 10 μM + Aβ, Aβ alone 897.4±43.4 ms) is reported as 420.6 ± 9.6 ms, the mEPSC inter-event interval ([1]; Rhy 10 μM alone, control 312.9±7.8 ms) is reported as 512.2 ± 13.6 ms and the “binding to the extracellular domain of EphA4 (pull-down, words)” value [2] is reported as “binds the extracellular domain of EphA4”. The “inhibition of glutamate-induced Ca2+ influx” value [3] was “nor inhibits the glutamate-induced Ca^2+ influx”, the “detection in plasma and brain” value ([4]; 10 min after single oral 50 mg/kg) was “readily detected” and the “level of Rhy as percentage of Cmax” value ([4]; after 3 h of administration, in both plasma and brain) was 10%. It also gave a half-life ([4]; male, brain, mouse, single oral 50 mg/kg, perfused brain, read-out: t1/2 in brain (converted)) of 1.79 ± 0.455 h, a half-life ([4]; male, brain, mouse, single oral 50 mg/kg, rounded, read-out: t1/2 in brain (converted)) of about 2 h and a half-life ([4]; male, plasma, mouse, single oral 50 mg/kg, read-out: t1/2 in plasma) of 1.35 ± 0.201 h. The Cmax ([4]; male, C57Bl/6, plasma, mouse, single oral 50 mg/kg) was 583 ± 32.9 ng/mL, the Tmax ([4]; male, C57Bl/6, plasma, mouse, single oral 50 mg/kg, read-out: Tmax in plasma (converted)) was 0.514 h and the Tmax ([4]; male, C57Bl/6, mouse, single oral 50 mg/kg, perfused brain, read-out: Tmax in brain (converted)) was 0.917 h. For the same molecule, the “blood-brain barrier passage” value ([4]; mouse, oral administration) was “can pass through the blood-brain barrier”, the Cmax in brain ([4]; mouse, single oral 50 mg/kg, perfused brain) was 442.73±27.38 ng/brain and the “time at which brain level peaked” value [4, 5] was about 1 h. For the same molecule, the “time at which plasma concentration peaked” value [4, 5] was about 0.5 h and the “time at which plasma concentration was reduced by 50%” value [4, 5] was about 1.5 h.
